According to article PMC11345766, “Computational Design of Pore-Forming Peptides with Potent Antimicrobial and Anticancer Activities” (Journal of Medicinal Chemistry, 2024):
Ends that are not written are not given here.

How the values were obtained:
[1] = system: MOLM-13, MEC-1 and SU-DHL-4 cancer cell lines; conditions: 24 h
Method: Anticancer activity of peptides against acute myeloid leukemia MOLM-13, chronic lymphocytic leukemia MEC-1, and diffuse large B-cell lymphoma SU-DHL-4 cell lines was tested using a WST cell viability assay. Cells were cultured in 75 cm^2 culture flasks at 37 °C in 5% CO2 according to the DSMZ recommendations before the start of the experiment. Then, the cells were seeded into 96-well plates in quadruplicate at 2.5 × 10^4 cells/well for SU-DHL-4, and 5 × 10^4 cells/well for MEC-1 and MOLM-13. Cells were treated with either peptides or PBS alone (negative control) for 24–72 h at 37 °C in 5% CO2. After incubation, cell viability was measured by WST-1 (Roche) according to the manufacturer’s instructions using Tecan microplate reader Infinite M200 PRO Plex and expressed as percentage compared to control.

MCF-7 cells = test: Immunoblotting of cleaved PARP and caspase-3; assay type: cell-based, human; conditions: 1 h treatment; media of different pH
Method: Furthermore, immunoblotting detection of cleaved PARP and caspase-3 markers confirmed the induction of apoptosis in MCF-7 cells by the peptides (Figure S10c).
MCF-7 cells were seeded at 2.5 × 10^5 cells/well in a 24-well plate 1 day before the experiment. Cells were treated with either peptides or PBS alone (negative control) and cultured in different media for 1 h. Cells were lysed using a buffer consisting of 1% SDS, 50 mM Tris–HCl (pH 6.8), and 10% glycerol with phosphatase and protease inhibitors. The protein concentration was determined by using the DC Protein Assay (Bio-Rad). Proteins were separated by SDS-PAGE and transferred to the PVDF membrane with a 0.45 μm pore size. The membranes were incubated with primary antibodies to detect cleaved PARP (no. 5625, 1:1000, Cell Signaling), total PARP (no. 9542, 1:2000, Cell Signaling), cleaved caspase-3 (no. 9664, 1:1000, Cell Signaling), or β-actin (no. 4970, 1:2000; Cell Signaling). Secondary HRP-linked antirabbit antibody (1:2000, Cell Signaling) was used to detect primary antibodies. Signal was detected using Clarity Western ECL Substrate (BioRad) and UVITEC Alliance (Uvitec).

[2] = system: panel of 20 different human cancer and 2 noncancerous cell lines; assay type: cell-based; conditions: 72 h
Method: First, we tested LP40 and LP1 for anticancer activity at the physiological pH. The peptides were screened against a panel of 20 different human cancer and 2 noncancerous cell lines using a CellTiter-Glo luminescent cell viability assay (Figure 6b). […] For few exceptional cell lines, the activity of LP40 was below 10 μM.
The CellTiter-Glo luminescent cell viability assay examining the impact of peptides on 22 different human cell lines was purchased from Reaction Biology Europe GmbH (Germany). Cells were cultured in different media (Table S1), seeded into a flat-bottom 96-well plate, and incubated at 37 °C. After overnight incubation, test compounds were added with 1% PBS/0.3% Tween 20 and the reference compound bortezomib was added with 0.1% DMSO. Negative controls were solvents alone, and positive control was 10 μM staurosporine. After 72 h of incubation at 37 °C, 5 or 10% CO2 (dependent on the medium), and 1 h equilibration at room temperature, well plates were treated with CellTiter-Glo reagent (Promega) for an hour and luminescence was measured using a luminometer.

[3] = system: human red blood cells (HRBCs); conditions: read-out: Hemolysis toxicity (IC50); 1 h incubation
Method: To investigate the toxicity for normal human cells, all peptides were first screened against human red blood cells (HRBCs) using a hemolysis assay (Table 2 and Figure S4).
Hemolysis toxicity was tested against HRBCs. Blood samples, collected from the university hospital, were centrifuged twice at 700 × g and once at 1000 × g for 8 min at 4 °C to obtain erythrocyte pellets. Supernatants were always discarded, and pellets were resuspended in PBS (the same as the antimicrobial susceptibility assay). The final RBC suspension was 0.5% (v/v). Dilution series was prepared for concentrations 50 to 0.1 μM in a V-bottom 96-well plate, followed by the addition of RBC suspension. […] After 1 h of incubation at 37 °C, the well plate was centrifuged at 1000 × g for 10 min at 4 °C. The supernatant, collected in a flat-bottom well plate, was measured for OD415 using Tecan Microplate Reader Infinite F500.

[4] = system: S. aureus ATCC BAA-1556 (MET); conditions: S. aureus / ATCC BAA-1556 / MET / Prot. d; Prot. d
[5] = system: S. aureus ATCC 29213 (Clinical); conditions: S. aureus / ATCC 29213 / Clinical / Prot. c; Prot. c
E. faecalis JH2-2 (WT) = conditions: E. faecalis / JH2-2 / WT / Prot. b; Prot. b
[6] = system: E. faecium ATCC 700221 (VAN, TEI); conditions: E. faecium / ATCC 700221 / VAN, TEI / Prot. d; Prot. d
[7] = system: E. faecium Z906 (VAN, TEI, LNZ); conditions: E. faecium / Z906 / VAN, TEI, LNZ / Prot. c; Prot. c
[8] = system: P. aeruginosa NCTC 13437 (ESBL); conditions: P. aeruginosa / NCTC 13437 / ESBL / Prot. a; Prot. a
[9] = system: S. aureus NRS1 (MRSA or VISA); conditions: S. aureus / NRS1 / MRSA or VISA / Prot. a; Prot. a
[10] = system: K. pneumoniae ATCC 700603 (ESBL); conditions: K. pneumoniae / ATCC 700603 / ESBL / Prot. a; Prot. a
[11] = system: P. aeruginosa K12 (AMI, IMI, MER, CTZ, PIT); conditions: P. aeruginosa / K12 / AMI, IMI, MER, CTZ, PIT / Prot. c; Prot. c
[12] = system: E. faecalis ATCC 700802 (VAN); conditions: E. faecalis / ATCC 700802 / VAN / Prot. d; Prot. d
[13] = system: E. faecium ATCC 19434T (WT); conditions: E. faecium / ATCC 19434T / WT / Prot. b; Prot. b
P. aeruginosa PA14 (WT) = conditions: P. aeruginosa / PA14 / WT / Prot. d; Prot. d
E. coli (E1098) = conditions: E1098, 18 h

Substance	IC50 [1] [µM]	Cleaved PARP and caspase-3 (apoptosis) (MCF-7 cells)	IC50 [2] [µM]	IC50 [3] [µM]	MIC [4] [µM]	MIC [5] [µM]	MIC (E. faecalis JH2-2 (WT)) [µM]	MIC [6] [µM]	MIC [7] [µM]	MIC [8] [µM]	MIC [9] [µM]	MIC [10] [µM]	MIC [11] [µM]	MIC [12] [µM]	MIC [13] [µM]	MIC (P. aeruginosa PA14 (WT)) [µM]	MIC (E. coli (E1098)) [µM]
H-HHHHLKKILKKLFQFINQLDNQLQDIHHHH-OH [LP40]	1 to 20	higher at pH 6	> 100	> 50													
KKKKLKKILKKLFQFINQLDNQLQDIKKKK-NH2 [LP18]					> 60	> 32	> 32	> 60	16	11	> 16	4	> 32	> 60	15	3.1	
KKKKLKKILKKLFQFINQLDNQLQDIKQNK-NH2 [LP1]	< 10				> 60	> 32	> 32	12.5	> 32	> 16	> 16	4	> 32	> 60	> 32	3.1	1
